Source: paper PMC8151276, “An Integrated Approach toward NanoBRET Tracers for Analysis of GPCR Ligand Engagement” (Molecules, 2021)

Molecular target: T1, FZD10 (Homo sapiens, UniProt Q9ULW2)
T1 construct: purchased Promega (in-house HiBiT-GPCR construct library, NanoBRET)
T1 sequence (Q9ULW2 21-581): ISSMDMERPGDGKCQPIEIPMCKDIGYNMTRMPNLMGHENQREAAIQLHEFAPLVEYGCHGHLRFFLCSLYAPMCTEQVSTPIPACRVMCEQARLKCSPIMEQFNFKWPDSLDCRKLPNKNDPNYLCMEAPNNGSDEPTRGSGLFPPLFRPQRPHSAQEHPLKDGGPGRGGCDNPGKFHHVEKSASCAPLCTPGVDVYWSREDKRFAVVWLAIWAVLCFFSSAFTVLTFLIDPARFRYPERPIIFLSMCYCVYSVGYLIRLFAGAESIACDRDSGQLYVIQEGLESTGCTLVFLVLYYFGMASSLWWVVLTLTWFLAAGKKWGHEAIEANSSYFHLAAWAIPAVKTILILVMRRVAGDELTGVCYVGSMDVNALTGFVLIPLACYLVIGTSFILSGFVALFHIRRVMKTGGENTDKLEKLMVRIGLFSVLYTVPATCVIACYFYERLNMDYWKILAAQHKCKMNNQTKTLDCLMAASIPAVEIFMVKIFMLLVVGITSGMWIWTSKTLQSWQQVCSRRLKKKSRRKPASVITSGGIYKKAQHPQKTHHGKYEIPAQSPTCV
Test: NanoBRET screen HiBiT-FZD10 in HEK293
Assay type: binding
Method: Each tracer candidate was screened across the entire library of HiBiT-GPCR constructs using NanoBRET as the detection modality. As depicted in Figure 4A, the specificity of interactions was evaluated through decrease in BRET due to competitive displacement of a bound tracer by excess parental compound. Each tracer was analyzed for binding to each HiBiT-GPCR fusion in the absence and in the presence of competing parental compound. Briefly, HEK293 cells were transfected with HiBiT-GPCR constructs diluted into promoterless DNA to reduce expression and maximize translocation to the cell surface. Each tracer candidate was then screened at concentrations of 1 μM and 0.1 μM across cells expressing these fusions. Cells were treated for 1.5 h with tracer either alone or in the presence of 20 μM competing parental compound (i.e., control). BRET was measured upon addition of purified LgBiT and subsequent complementation with HiBiT genetically fused to a GPCR. The specificity of interactions was assessed through a decrease in BRET signal due to competitive displacement of the bound tracer. To further gauge the robustness of these interactions, the fold response over the control (i.e., BRETtracer/BRETcontrol) was calculated. We chose a 1.5-fold response, which translates to ≥7-fold signal over noise as the minimal threshold required to score an interaction as positive.
HiBiT-GPCR DNA constructs were diluted in 10 mM Tris pH 8 to a final concentration of 0.01 μg/μL, arrayed in 96-well plates and stored at −20 °C. For transfection, HEK293 cells were suspended in Opti-MEM (without phenol red) supplemented with 2% fetal bovine serum (Seradigm) and 100 units/mL penicillin–streptomycin (Gibco) at a final concentration of 220,000 cells/mL and dispensed into white 96-well plates at 90 μL/well. Subsequent transfections and screens were carried using an Agilent Bravo Automated Liquid Handling Platform. First, the 96-well HiBiT DNA arrays were diluted 25-fold in Opti-MEM (without serum or phenol red) to a final concentration of 0.0004 μg/μL and 20 μL of the diluted DNAs were transferred into new 96-well plates. Next, promoterless carrier DNA (1 μg/μL) was diluted 25-fold (0.04 μg/μL) and then dispensed into the diluted arrays at 20 μL/well. Following brief mixing, Viafect transfection reagent (Promega) diluted 16-fold into Opti-MEM was dispensed into the plates at 40 μL/well. After mixing by pipetting, plates were incubated for 10 min on the pipetting station deck. The DNA-transfection reagent complexes were then added to plates containing cells. To facilitate the screen, 10 μL of DNA-transfection reagent complexes were added in duplicates to the top 4 and bottom 4 rows, resulting in two identical 48-well arrays per plate. Plates with transfected cells were incubated for 18–20 h at 37 °C/5% CO2. A screen of each tracer across the entire library using two different concentrations requires duplicate plates of transfected cells. Depending on the number of tracers being screened, transfections can be scaled up using the same ratios. The next day, for each tracer, four 20× screening solutions in tracer dilution buffer (Promega) were prepared: two duplicates at final concentration of 20 μM and two duplicates at a final concentration of 2 μM. […] The four resulting solutions were diluted 4-fold in Opti-MEM without serum or phenol red to generate 5× solutions (5 µM and 0.5 µM tracer +/− 100 μM competing compound). To screen the library, a BioTek MultiFlo FX liquid dispenser was used to dispense 22.5 µL of tracer solution to the top 4 rows and 22.5 µL tracer + competing compound solution to the 4 bottom rows. Plates were briefly mixed on an orbital shaker and incubated for 1.5 h at room temperature. […] Plates were briefly mixed on an orbital shaker and incubated for 15 min to allow complementation.

| SMILES | NanoBRET Fold Response (FZD10, tracer 0.1μM) | NanoBRET Fold Response (FZD10, tracer 1μM) | also measured |
| --- | --- | --- | --- |
| Cc1nc2n(c(=O)c1CCN1CCC(c3noc4cc(F)ccc34)CC1)CCCC2OC(=O)NCCOCCOCCOCCOCCNC(=O)CCc1ccc2n1[B-](F)(F)[N+]1=C(c3ccc[nH]3)C=CC1=C2 (stereo not drawn) [Risperidone-2-NB590] | 1.00 | 1.04 |  |
| CCOC(=O)c1cc(C#N)c(N2CCC(C(=O)NS(=O)(=O)Cc3ccccc3/C=C/C(=O)NCCNC(=O)CCc3ccc4n3[B-](F)(F)[N+]3=C(c5ccc[nH]5)C=CC3=C4)CC2)nc1C [AZD1283-1-NB590] |  |  | NanoBRET Fold Response (FZD10, 0.1μM): 1.01; NanoBRET Fold Response (FZD10, 1μM): 1.02 |
| Cc1cc2c(s1)Nc1ccccc1N=C2N1CCN(CCCNC(=O)CCOCCOCCOCCOCCNC(=O)CCc2ccc3n2[B-](F)(F)[N+]2=C(c4ccc[nH]4)C=CC2=C3)CC1 [Olanzapine-a-2-NB590] | 0.98 | 0.99 |  |
| COc1ccccc1N1CCN(CCCCN2C(=O)c3ccc(CNC(=O)CCOCCNC(=O)c4ccc(CNC(=O)CCc5ccc6n5[B-](F)(F)[N+]5=C(c7ccc[nH]7)C=CC5=C6)cc4)cc3C2=O)CC1 [NAN-190-3-NB590] | 0.92 | 0.79 |  |
| CC(C)N(CC[C@H](c1ccccc1)c1cc(CCNC(=O)CCOCCOCCOCCOCCNC(=O)CCc2ccc3n2[B-](F)(F)[N+]2=C(c4ccc[nH]4)C=CC2=C3)ccc1O)C(C)C [Tolterodine-2-NB590] |  | 1.05 |  |
| CN(C)CCC=C1c2ccccc2CCc2ccc(C(=O)NCCNC(=O)CCOCCOCCOCCOCCNC(=O)CCc3ccc4n3[B-](F)(F)[N+]3=C(c5ccc[nH]5)C=CC3=C4)cc21 [Amitriptyline-b-2-NB590] |  |  | NanoBRET Fold Response (tracer at 0.1μM, listed as amitriptyline-b-2-NB590): 0.18; NanoBRET Fold Response (tracer at 1μM): 0.99 |
| O=C(CCOCCOCCOCCOCCNC(=O)CCc1ccc2n1[B-](F)(F)[N+]1=C(c3ccc[nH]3)C=CC1=C2)NCCCN1CCN(C2=Nc3ccccc3Oc3ccc(Cl)cc32)CC1 [Loxapine-a-2-NB590] | 0.98 | 0.99 |  |
| CN(C)CCC=C1c2ccccc2CCc2ccc(C(=O)NCCNC(=O)CCOCCOCCOCCOCCNC(=O)CCc3ccc4n3[B-](F)(F)[N+]3=C(c5ccc[nH]5)C=CC3=C4)cc21 [Amitriptyline-a-2-NB590] |  |  | NanoBRET Fold Response (tracer at 0.1μM): 0.97; NanoBRET Fold Response (tracer at 1μM): 1.01 |
| O=C(CCc1ccc2n1[B-](F)(F)[N+]1=C(c3ccc[nH]3)C=CC1=C2)NCCOCCOCCNC(=O)OCCOCCN1CCN(C2=Nc3ccccc3Sc3ccccc32)CC1 [Quetiapine-a-2-NB590] | 0.92 | 0.80 |  |
| COc1ccccc1N1CCN(CCCCN2C(=O)c3ccc(CNC(=O)CCOCCOCCOCCOCCNC(=O)CCc4ccc5n4[B-](F)(F)[N+]4=C(c6ccc[nH]6)C=CC4=C5)cc3C2=O)CC1 [NAN-190-2-NB590] | 0.99 | 1.04 |  |
| CN1CCN(C2=Nc3cc(Cl)ccc3N(CC(=O)NCCOCCOCCOCCOCCNC(=O)CCc3ccc4n3[B-](F)(F)[N+]3=C(c5ccc[nH]5)C=CC3=C4)c3ccccc32)CC1 [Clozapine-c-2-NB590] |  |  | NanoBRET Fold Response (FZD10, 0.1μM tracer): 1.00 |
| COc1ccc2[nH]c(-c3ccc(CNC(=O)CCOCCOCCOCCOCCNC(=O)CCc4ccc5n4[B-](F)(F)[N+]4=C(c6ccc[nH]6)C=CC4=C5)cc3)c(CCNC(C)=O)c2n1 [AzomelatoninICO9-2-NB590] |  |  | NanoBRET Fold Response (0.1μM tracer): 0.96; NanoBRET Fold Response (1μM tracer): 0.89 |
| O=C(CCOCCOCCOCCOCCNC(=O)CCc1ccc2n1[B-](F)(F)[N+]1=C(c3ccc[nH]3)C=CC1=C2)NCCCN1CCN(C2=Nc3cc(Cl)ccc3Nc3ccccc32)CC1 [Clozapine-a-2-NB590] |  |  | NanoBRET Fold Response (FZD10, 0.1μM tracer): 1.01; NanoBRET Fold Response (FZD10, 1μM tracer): 0.99 |
| CCCn1c(=O)c2[nH]c(-c3ccc(OCC(=O)NCCNC(=O)CCOCCNC(=O)c4ccc(CNC(=O)CCc5ccc6n5[B-](F)(F)[N+]5=C(c7ccc[nH]7)C=CC5=C6)cc4)cc3)nc2n(CCC)c1=O [XAC-3-NB590] | 1.05 | 0.99 |  |
| O=C(CCc1ccc2n1[B-](F)(F)[N+]1=C(c3ccc[nH]3)C=CC1=C2)NCc1ccc(C(=O)NCCOCCOCCNCC(O)COc2cccc3ccccc23)cc1 (stereo not drawn) [Propranolol-3-NB590] |  |  | NanoBRET Fold Response (FZD10, 0.1μM): 1.04; NanoBRET Fold Response (FZD10, 1μM): 1.02 |
| O=C(CCc1ccc2n1[B-](F)(F)[N+]1=C(c3ccc[nH]3)C=CC1=C2)NCc1ccc(C(=O)NCCOCCC(=O)N[C@@H]2CC[C@@]3(O)[C@H]4Cc5ccc(O)c6c5[C@@]3(CCN4CC3CC3)[C@H]2O6)cc1 [Naltrexone-3-NB590] | 0.66 | 1.06 |  |
| CN(CCC=C1c2ccccc2CCc2ccccc21)C(=O)CCOCCOCCOCCOCCNC(=O)CCc1ccc2n1[B-](F)(F)[N+]1=C(c3ccc[nH]3)C=CC1=C2 [Amitriptyline-e-2-NB590] |  |  | NanoBRET Fold Response (tracer at 1μM): 1.01 |
| N#CN=C(NCCCOc1cccc(CN2CCCCC2)c1)NCCNC(=O)CCOCCOCCOCCOCCNC(=O)CCc1ccc2n1[B-](F)(F)[N+]1=C(c3ccc[nH]3)C=CC1=C2 [Aminopotentidine-2-NB590] | 0.99 | 0.99 |  |
| COc1ccc2c(n1)c(CCNC(C)=O)cn2CCNC(=O)CCc1ccc2n1[B-](F)(F)[N+]1=C(c3ccc[nH]3)C=CC1=C2 [Azamelatonin-1-NB590] |  |  | NanoBRET Fold Response (0.1μM tracer): 0.93; NanoBRET Fold Response (1μM tracer): 0.93 |
| CC(C)N(CC[C@H](c1ccccc1)c1cc(CCNC(=O)c2ccc(CNC(=O)CCc3ccc4n3[B-](F)(F)[N+]3=C(c5ccc[nH]5)C=CC3=C4)cc2)ccc1O)C(C)C [Tolterodine-BZ-NB590] | 0.97 | 1.06 |  |
| CN1CCN(C2=Nc3cc(Cl)ccc3Nc3ccc(CNC(=O)CCOCCOCCOCCOCCNC(=O)CCc4ccc5n4[B-](F)(F)[N+]4=C(c6ccc[nH]6)C=CC4=C5)cc32)CC1 [Clozapine-b-2-NB590] |  |  | NanoBRET Fold Response (FZD10, 0.1μM tracer): 1.01; NanoBRET Fold Response (FZD10, 1μM tracer): 1.08 |
